According to patent publication US20230257396A1, “MACROCYCLES AND THEIR USE” (BLOSSOMHILL THERAPEUTICS, INC., priority 2020, published 2023):

What was measured:
Assay in all cases: KINOMEscan kinase binding assay (Eurofins/DiscoveRx), % Ctrl
Details in all cases: 1 μM
kinases [1] = molecular target: T1, kinases (Homo sapiens, UniProt P00519, E255K)
T1 construct: purchased Eurofins/DiscoveRx; host or cells: E. coli BL21-derived host (T7 phage display) for most kinases; HEK-293 for the rest
In short: (§1)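 Read-out is qPCR of kinase eluted from ligand-coated streptavidin beads after 1 h room-temperature competition with test compound. Values are % Ctrl at the tested concentration, lower meaning tighter binding.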

kinases [2] = molecular target: T2, kinases (Homo sapiens, UniProt P00519, H396P)
T2 construct: purchased Eurofins/DiscoveRx; host or cells: E. coli BL21-derived host (T7 phage display) for most kinases; HEK-293 for the rest
In short: as §1

kinases [3] = molecular target: T3, kinases (Homo sapiens, UniProt P00519, M351T)
T3 construct: purchased Eurofins/DiscoveRx; host or cells: E. coli BL21-derived host (T7 phage display) for most kinases; HEK-293 for the rest
In short: as §1

kinases [4] = molecular target: T4, kinases (Homo sapiens, UniProt P00519, Q252H)
T4 construct: purchased Eurofins/DiscoveRx; host or cells: E. coli BL21-derived host (T7 phage display) for most kinases; HEK-293 for the rest
In short: as §1

kinases [5] = molecular target: T5, kinases (Homo sapiens, UniProt P00519, Y253F)
T5 construct: purchased Eurofins/DiscoveRx; host or cells: E. coli BL21-derived host (T7 phage display) for most kinases; HEK-293 for the rest
In short: as §1

kinases [6] = molecular target: T6, kinases (Homo sapiens, UniProt P00533)
T6 construct: purchased Eurofins/DiscoveRx; host or cells: E. coli BL21-derived host (T7 phage display) for most kinases; HEK-293 for the rest
In short: as §1

kinases [7] = molecular target: T7, kinases (Homo sapiens, UniProt P00533, G719S)
T7 construct: purchased Eurofins/DiscoveRx; host or cells: E. coli BL21-derived host (T7 phage display) for most kinases; HEK-293 for the rest
In short: as §1

kinases [8] = molecular target: T8, kinases (Homo sapiens, UniProt P00533, L861Q)
T8 construct: purchased Eurofins/DiscoveRx; host or cells: E. coli BL21-derived host (T7 phage display) for most kinases; HEK-293 for the rest
In short: as §1

kinases [9] = molecular target: T9, kinases (Homo sapiens, UniProt P00533, T790M)
T9 construct: purchased Eurofins/DiscoveRx; host or cells: E. coli BL21-derived host (T7 phage display) for most kinases; HEK-293 for the rest
In short: as §1

kinases [10] = molecular target: T10, kinases (Homo sapiens, UniProt P07949)
T10 construct: purchased Eurofins/DiscoveRx; host or cells: E. coli BL21-derived host (T7 phage display) for most kinases; HEK-293 for the rest
T10 sequence (P07949 29-1114): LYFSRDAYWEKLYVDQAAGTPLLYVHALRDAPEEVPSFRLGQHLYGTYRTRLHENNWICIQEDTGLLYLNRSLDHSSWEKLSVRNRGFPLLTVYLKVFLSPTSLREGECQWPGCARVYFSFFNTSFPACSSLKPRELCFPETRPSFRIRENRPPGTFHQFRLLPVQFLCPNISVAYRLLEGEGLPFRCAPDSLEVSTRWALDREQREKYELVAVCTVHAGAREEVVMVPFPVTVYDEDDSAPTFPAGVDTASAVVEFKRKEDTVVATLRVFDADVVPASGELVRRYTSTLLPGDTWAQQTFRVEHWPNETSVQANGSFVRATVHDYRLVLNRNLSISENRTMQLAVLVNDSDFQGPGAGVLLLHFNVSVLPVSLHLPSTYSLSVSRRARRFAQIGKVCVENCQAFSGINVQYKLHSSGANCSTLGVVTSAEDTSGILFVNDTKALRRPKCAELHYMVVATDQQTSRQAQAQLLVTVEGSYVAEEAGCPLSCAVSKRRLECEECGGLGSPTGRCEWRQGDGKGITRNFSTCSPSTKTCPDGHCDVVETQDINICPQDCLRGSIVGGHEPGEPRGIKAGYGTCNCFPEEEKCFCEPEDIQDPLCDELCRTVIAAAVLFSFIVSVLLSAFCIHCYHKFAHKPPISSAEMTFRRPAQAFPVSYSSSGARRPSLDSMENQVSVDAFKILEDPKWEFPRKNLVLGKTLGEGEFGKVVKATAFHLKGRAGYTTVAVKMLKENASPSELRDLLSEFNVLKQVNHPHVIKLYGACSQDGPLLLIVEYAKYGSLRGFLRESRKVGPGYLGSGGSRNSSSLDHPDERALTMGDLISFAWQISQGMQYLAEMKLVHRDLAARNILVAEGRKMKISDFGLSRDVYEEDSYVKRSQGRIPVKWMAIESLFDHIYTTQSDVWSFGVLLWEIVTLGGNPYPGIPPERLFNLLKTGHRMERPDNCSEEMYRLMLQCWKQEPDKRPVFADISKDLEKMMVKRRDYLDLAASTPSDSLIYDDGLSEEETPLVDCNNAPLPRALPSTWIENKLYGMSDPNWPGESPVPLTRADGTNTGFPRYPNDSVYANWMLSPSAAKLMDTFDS
In short: as §1

kinases [11] = molecular target: T11, kinases (Homo sapiens, UniProt P07949, V804L)
T11 construct: purchased Eurofins/DiscoveRx; host or cells: E. coli BL21-derived host (T7 phage display) for most kinases; HEK-293 for the rest
T11 sequence (P07949 29-1114 V804L): as the sequence (P07949 29-1114) above, with V776L counted along it
In short: as §1

kinases [12] = molecular target: T12, kinases (Homo sapiens, UniProt P10721, D816H)
T12 construct: purchased Eurofins/DiscoveRx; host or cells: E. coli BL21-derived host (T7 phage display) for most kinases; HEK-293 for the rest
T12 sequence (P10721 26-976 D816H): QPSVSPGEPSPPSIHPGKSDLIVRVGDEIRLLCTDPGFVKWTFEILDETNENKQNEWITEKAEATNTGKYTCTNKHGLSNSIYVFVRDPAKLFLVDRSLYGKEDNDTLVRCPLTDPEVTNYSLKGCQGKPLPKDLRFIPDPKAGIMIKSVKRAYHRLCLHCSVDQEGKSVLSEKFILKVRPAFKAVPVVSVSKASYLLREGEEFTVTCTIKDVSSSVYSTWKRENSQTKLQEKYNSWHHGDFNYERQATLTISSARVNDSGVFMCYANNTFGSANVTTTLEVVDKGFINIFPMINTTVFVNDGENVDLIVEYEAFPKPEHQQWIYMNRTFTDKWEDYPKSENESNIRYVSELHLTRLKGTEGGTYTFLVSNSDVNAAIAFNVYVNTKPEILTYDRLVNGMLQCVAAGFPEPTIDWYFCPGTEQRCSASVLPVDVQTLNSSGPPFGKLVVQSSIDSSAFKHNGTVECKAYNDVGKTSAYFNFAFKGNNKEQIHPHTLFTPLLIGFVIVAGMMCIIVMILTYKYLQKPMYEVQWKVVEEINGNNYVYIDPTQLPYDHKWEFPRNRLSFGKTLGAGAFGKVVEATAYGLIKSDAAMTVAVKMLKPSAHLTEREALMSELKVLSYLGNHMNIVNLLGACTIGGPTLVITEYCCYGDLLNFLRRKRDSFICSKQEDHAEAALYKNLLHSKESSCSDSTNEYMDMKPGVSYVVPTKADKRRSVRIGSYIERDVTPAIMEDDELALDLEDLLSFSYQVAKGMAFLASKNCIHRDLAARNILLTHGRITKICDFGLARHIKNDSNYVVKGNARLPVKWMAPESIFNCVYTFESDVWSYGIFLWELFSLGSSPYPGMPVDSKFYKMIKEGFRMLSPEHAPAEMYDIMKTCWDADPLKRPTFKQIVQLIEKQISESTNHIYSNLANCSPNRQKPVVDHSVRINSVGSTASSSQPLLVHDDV
In short: as §1

kinases [13] = molecular target: T13, kinases (Homo sapiens, UniProt P10721, L576P)
T13 construct: purchased Eurofins/DiscoveRx; host or cells: E. coli BL21-derived host (T7 phage display) for most kinases; HEK-293 for the rest
T13 sequence (P10721 26-976 L576P): as the sequence (P10721 26-976 D816H) above, with L551P, H791D counted along it
In short: as §1

kinases [14] = molecular target: T14, kinases (Homo sapiens, UniProt P36888, D835V)
T14 construct: purchased Eurofins/DiscoveRx; host or cells: E. coli BL21-derived host (T7 phage display) for most kinases; HEK-293 for the rest
T14 sequence (P36888 27-993 D835V): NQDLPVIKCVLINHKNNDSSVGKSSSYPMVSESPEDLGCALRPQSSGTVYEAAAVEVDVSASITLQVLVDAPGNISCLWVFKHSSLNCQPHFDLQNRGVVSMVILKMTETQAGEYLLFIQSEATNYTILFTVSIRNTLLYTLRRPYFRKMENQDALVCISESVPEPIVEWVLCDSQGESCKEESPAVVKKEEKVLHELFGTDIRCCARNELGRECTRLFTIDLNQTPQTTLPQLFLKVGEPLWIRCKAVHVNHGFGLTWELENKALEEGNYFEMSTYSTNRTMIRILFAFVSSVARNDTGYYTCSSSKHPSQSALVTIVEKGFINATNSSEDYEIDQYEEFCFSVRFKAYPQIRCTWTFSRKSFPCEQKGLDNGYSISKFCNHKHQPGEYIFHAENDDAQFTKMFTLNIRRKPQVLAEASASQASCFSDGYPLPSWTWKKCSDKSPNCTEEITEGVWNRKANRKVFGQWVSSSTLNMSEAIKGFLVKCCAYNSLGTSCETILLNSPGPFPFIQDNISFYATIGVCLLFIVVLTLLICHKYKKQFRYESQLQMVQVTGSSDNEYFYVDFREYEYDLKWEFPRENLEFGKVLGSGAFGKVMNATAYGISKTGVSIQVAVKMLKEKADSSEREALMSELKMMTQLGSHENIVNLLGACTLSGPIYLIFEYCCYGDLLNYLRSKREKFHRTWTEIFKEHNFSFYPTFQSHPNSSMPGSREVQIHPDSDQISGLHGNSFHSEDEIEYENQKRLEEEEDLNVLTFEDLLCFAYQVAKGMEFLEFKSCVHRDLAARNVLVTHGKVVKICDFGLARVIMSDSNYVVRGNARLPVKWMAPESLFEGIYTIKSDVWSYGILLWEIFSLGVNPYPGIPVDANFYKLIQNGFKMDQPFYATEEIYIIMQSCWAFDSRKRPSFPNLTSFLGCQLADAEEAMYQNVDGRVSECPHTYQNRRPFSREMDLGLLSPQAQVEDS
In short: as §1

kinases [15] = molecular target: T15, kinases (Homo sapiens, UniProt P42684)
T15 construct: purchased Eurofins/DiscoveRx; host or cells: E. coli BL21-derived host (T7 phage display) for most kinases; HEK-293 for the rest
T15 sequence (P42684 whole entry): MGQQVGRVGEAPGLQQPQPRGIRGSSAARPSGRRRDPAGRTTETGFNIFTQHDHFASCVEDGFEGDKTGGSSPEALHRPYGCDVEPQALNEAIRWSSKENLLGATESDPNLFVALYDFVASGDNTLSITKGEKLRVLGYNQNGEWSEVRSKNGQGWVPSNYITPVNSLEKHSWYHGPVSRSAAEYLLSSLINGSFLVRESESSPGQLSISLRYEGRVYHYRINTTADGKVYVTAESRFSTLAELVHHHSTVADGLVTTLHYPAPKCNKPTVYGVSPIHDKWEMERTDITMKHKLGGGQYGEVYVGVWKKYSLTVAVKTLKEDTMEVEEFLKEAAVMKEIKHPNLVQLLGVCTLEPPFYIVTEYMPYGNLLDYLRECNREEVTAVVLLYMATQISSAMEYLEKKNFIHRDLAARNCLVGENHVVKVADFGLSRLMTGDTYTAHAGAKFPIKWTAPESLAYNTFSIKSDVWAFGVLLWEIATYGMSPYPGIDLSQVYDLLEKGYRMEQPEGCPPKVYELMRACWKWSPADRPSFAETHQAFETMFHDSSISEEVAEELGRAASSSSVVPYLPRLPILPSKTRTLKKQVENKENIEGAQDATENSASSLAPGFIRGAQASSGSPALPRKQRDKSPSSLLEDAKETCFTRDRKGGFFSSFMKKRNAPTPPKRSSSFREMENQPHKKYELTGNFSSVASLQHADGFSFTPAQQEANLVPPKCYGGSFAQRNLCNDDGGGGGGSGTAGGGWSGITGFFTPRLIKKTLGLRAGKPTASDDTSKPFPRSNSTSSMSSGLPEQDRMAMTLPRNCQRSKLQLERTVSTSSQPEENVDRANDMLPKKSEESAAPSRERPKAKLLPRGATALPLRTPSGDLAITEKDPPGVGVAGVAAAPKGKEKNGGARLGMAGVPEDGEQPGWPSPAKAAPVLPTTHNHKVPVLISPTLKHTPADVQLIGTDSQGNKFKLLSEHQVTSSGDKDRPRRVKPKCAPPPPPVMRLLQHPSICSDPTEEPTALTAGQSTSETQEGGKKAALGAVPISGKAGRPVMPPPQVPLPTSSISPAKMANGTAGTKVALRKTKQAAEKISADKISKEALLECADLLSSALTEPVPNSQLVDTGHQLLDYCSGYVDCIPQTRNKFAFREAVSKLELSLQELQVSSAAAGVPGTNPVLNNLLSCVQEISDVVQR
In short: as §1

| Compound | % Ctrl, ABL1(E255K)-phosphorylated (kinases [1]; ABL1(E255K)-phosphorylated) | % Ctrl, ABL1(H396P)-nonphosphorylated (kinases [2]; ABL1(H396P)-nonphosphorylated) | % Ctrl, ABL1(H396P)-phosphorylated (kinases [2]; ABL1(H396P)-phosphorylated) | % Ctrl, ABL1(M351T)-phosphorylated (kinases [3]; ABL1(M351T)-phosphorylated) | % Ctrl, ABL1(Q252H)-nonphosphorylated (kinases [4]; ABL1(Q252H)-nonphosphorylated) | % Ctrl, ABL1(Q252H)-phosphorylated (kinases [4]; ABL1(Q252H)-phosphorylated) | % Ctrl, ABL1(Y253F)-phosphorylated (kinases [5]; ABL1(Y253F)-phosphorylated) | % Ctrl, EGFR (kinases [6]; EGFR) | % Ctrl, EGFR(G719S) (kinases [7]; EGFR(G719S)) | % Ctrl, EGFR(L861Q) (kinases [8]; EGFR(L861Q)) | % Ctrl, EGFR(T790M) (kinases [9]; EGFR(T790M)) | % Ctrl, RET (kinases [10]; RET) | % Ctrl, RET(V804L) (kinases [11]; RET(V804L)) | % Ctrl, KIT(D816H) (kinases [12]; KIT(D816H)) | % Ctrl, KIT(L576P) (kinases [13]; KIT(L576P)) | % Ctrl, FLT3(D835V) (kinases [14]; FLT3(D835V)) | % Ctrl, ABL2 (kinases [15]; ABL2) | further results |
| --- | --- | --- | --- | --- | --- | --- | --- | --- | --- | --- | --- | --- | --- | --- | --- | --- | --- | --- |
| Cc1cc2c([nH]1)/C=C1\C(=O)Nc3ccc(cc31)-c1c(noc1C(C)C)COCCN(C)C2=O [Ex. 161, [3a(4)Z]-9-methyl-16-(propan-2-yl)-10,11-dihydro-2H,13H-1,17-(ethanediylidene)[1,2]oxazolo[4,3-m]dipyrrolo[3,2-f:3′,4′-i][1,4]oxazacyclopentadecine-3,8(5H,9H)-dione] | – | – | – | – | – | – | – | – | – | – | – | – | – | – | – | – | – | % Ctrl, ABL1(E255K)-phosphorylated (kinases [1]; target ABL1(E255K)-phosphorylated): 86 % Ctrl; % Ctrl, ABL1(H396P)-nonphosphorylated (kinases [2]; target ABL1(H396P)-nonphosphorylated): 91 % Ctrl; % Ctrl, ABL1(H396P)-phosphorylated (kinases [2]; target ABL1(H396P)-phosphorylated): 100 % Ctrl; % Ctrl, ABL1(M351T)-phosphorylated (kinases [3]; target ABL1(M351T)-phosphorylated): 81 % Ctrl; % Ctrl, ABL1(Q252H)-nonphosphorylated (kinases [4]; target ABL1(Q252H)-nonphosphorylated): 100 % Ctrl; % Ctrl, ABL1(Q252H)-phosphorylated (kinases [4]; target ABL1(Q252H)-phosphorylated): 79 % Ctrl; % Ctrl, ABL1(Y253F)-phosphorylated (kinases [5]; target ABL1(Y253F)-phosphorylated): 78 % Ctrl; % Ctrl, EGFR (kinases [6]; target EGFR): 73 % Ctrl; % Ctrl, EGFR(G719S) (kinases [7]; target EGFR(G719S)): 58 % Ctrl; % Ctrl, EGFR(L861Q) (kinases [8]; target EGFR(L861Q)): 100 % Ctrl; % Ctrl, EGFR(T790M) (kinases [9]; target EGFR(T790M)): 100 % Ctrl; % Ctrl, RET (kinases [10]; target RET): 97 % Ctrl; % Ctrl, RET(V804L) (kinases [11]; target RET(V804L)): 72 % Ctrl; % Ctrl, KIT(D816H) (kinases [12]; target KIT(D816H)): 100 % Ctrl; % Ctrl, KIT(L576P) (kinases [13]; target KIT(L576P)): 100 % Ctrl; % Ctrl, FLT3(D835V) (kinases [14]; target FLT3(D835V)): 23 % Ctrl; % Ctrl, ABL2 (kinases [15]; target ABL2): 87 % Ctrl |
| Cc1cc2c([nH]1)/C=C1\C(=O)Nc3ccc(cc31)O[C@@H](C)COCCN(C)C2=O [Ex. 92, [10S,16a(17)Z]-2,5,10-trimethyl-6,7,9,10-tetrahydro-1H-12,14-(ethanediylidene)dipyrrolo[3,2-i:3′,4′-l][1,4,7]dioxazacyclopentadecine-4,16(5H,15H)-dione] | 22 % Ctrl | 0.3 % Ctrl | 46 % Ctrl | 54 % Ctrl | 0 % Ctrl | 34 % Ctrl | 54 % Ctrl | 98 % Ctrl | 98 % Ctrl | 100 % Ctrl | 100 % Ctrl | 63 % Ctrl | 43 % Ctrl | 87 % Ctrl | 87 % Ctrl | 3.7 % Ctrl | 43 % Ctrl | – |
| Cc1cc2c([nH]1)/C=C1\C(=O)Nc3cc(Cl)c(cc31)OCCOCCN(C)C2=O [Ex. 131, [16a(17)Z]-19-chloro-2,5-dimethyl-6,7,9,10-tetrahydro-1H-12,14-(ethanediylidene)dipyrrolo[3,2-i:3′,4′-l][1,4,7]dioxazacyclopentadecine-4,16(5H,15H)-dione] | 0 % Ctrl | 0 % Ctrl | 0 % Ctrl | 0.2 % Ctrl | 0 % Ctrl | 0.2 % Ctrl | 0 % Ctrl | 52 % Ctrl | 80 % Ctrl | 78 % Ctrl | 61 % Ctrl | 0 % Ctrl | 0 % Ctrl | 6.2 % Ctrl | 0 % Ctrl | 0 % Ctrl | 1.8 % Ctrl | – |
